The text below walks through data of US8475804B2 (priority 2009, dated 2013).

For the test, the system named is Ebola virus. In words: microbe, parasite or virus in culture. Format: cell-based, Ebolavirus (EBOV). The following applies: for Emax: read-out: Max Effect.

pIC50: −log10 of the molar value. Structures can show the parent of a compound that is named as a salt. Where two headings read alike, the source gives them in different places.

Take `O=[N+]([O-])c1ccccc1OCCCCCOc1ccccc1[N+](=O)[O-]` [1,5′-Bis(2-Nitrophenoxy)pentane]: the “Max Effect” value came to 0.531. The negative logarithm of the IC50 (pIC50) (read-out: IC50) is 4.89.

For the molecule `CO[C@@H]1[C@H](O)C[C@@H](O[C@@H]2C[C@H](Oc3cc4cc5c(c(O)c4c(O)c3C)C(=O)[C@@H](O[C@H]3C[C@@H](O[C@H]4C[C@@H](O[C@H]6C[C@](C)(O)[C@@H](OC(C)=O)[C@H](C)O6)[C@H](O)[C@@H](C)O4)[C@H](O)[C@@H](C)O3)[C@H]([C@H](OC)C(=O)[C@@H](O)[C@@H](C)O)C5)O[C@H](C)[C@@H]2OC(C)=O)O[C@@H]1C` [Chromomycin A3], the “Max Effect” value was found to be 0.629. Further, the pIC50 (read-out: IC50) is 6.40.

For `COc1ccc(C[C@H]2NC[C@H](O)[C@H]2OC(C)=O)cc1` [Anisomycin], the “Max Effect” value amounted to 0.900. Also, the negative-log IC50 (pIC50) (read-out: IC50) is above 5.80.

Turning to `CC(=O)O.CC(=O)O.NC(=N\CCCCCC/N=C(N)/N=C(\N)Nc1ccc(Cl)cc1)/N=C(\N)Nc1ccc(Cl)cc1` [Chlorhexidine Diacetate], the “Max Effect” value is reported as 0.543. Moreover, for the setting “read-out: IC50”, the negative-log IC50 (pIC50) is 5.21.

Take `O=C(/C=C/c1ccc(O)c(O)c1)OCCc1ccccc1` [CAPE]: the “Max Effect” value is listed as 0.368.

On to `N=C(N)c1ccc(OCCCCCOc2ccc(C(=N)N)cc2)cc1` [Pentamidine], for which, where the note is “Zaire ebolavirus, Vero”, the negative-log IC50 (pIC50) was 4.98 and the Emax turned out to be 42.2%.

On to `NCCNS(=O)(=O)c1ccc(Cl)c2ccncc12` [CKI7], for which the “Max Effect” value was found to be 0.565. In addition, the pIC50 (read-out: IC50) is 4.97.

Turning to `CO[C@@H]1[C@@H](OC)[C@H](C)[C@@](O)(CC(=O)O)O[C@H]1[C@H](C)[C@H]1O[C@@]2(CC[C@@](C)([C@H]3CC[C@@](C)([C@@H]4O[C@@H]([C@H]5O[C@](C)(O)[C@H](C)C[C@@H]5C)C[C@@H]4O[C@@H]4C[C@H](OC)[C@@H](OC)[C@H](C)O4)O3)O2)C[C@H](O)[C@H]1C` [Maduramicin NH4], the Emax (Zaire ebolavirus, Vero) is 45.2%.

As for `O=C(Nc1ccc([N+](=O)[O-])cc1Cl)c1cc(Cl)ccc1O` [Niclosamide], under “Zaire ebolavirus, Vero”, the pIC50 is 5.59 and the Emax worked out at 84.2%.

For `COc1c(C)c2c(c(O)c1C/C=C(\C)CCC(=O)O)C(=O)OC2` [Mycophenolic Acid], where the note is “Zaire ebolavirus, Vero”, the pIC50 is above 6.00 and the Emax stood at 80%.

In the case of `CCCCCCCCCC(=O)NC(CN1CCOCC1)C(O)c1ccccc1.Cl` (centres unmarked) [PDMP Hydrochloride], the “Max Effect” value is 0.390.

On to `Clc1cc(Cl)c(OCC#CI)cc1Cl` [Haloprogin], for which, for the setting “Zaire ebolavirus, Vero”, the negative logarithm of the IC50 (pIC50) was 5.54 and the Emax stood at 58.8%.

Consider Bromelain, for which the “Max Effect” value stood at 0.769. Further, the pIC50 (read-out: IC50) was 5.40.

As for `CC1=C(/C=C/C(C)=C/C=C/C(C)=C/C(=O)Nc2ccc(O)cc2)C(C)(C)CCC1` [Fenretinide], the Emax (Zaire ebolavirus, Vero) worked out at 42.6%.

In the case of `COc1ccc(C[C@H](N)C(=O)N[C@H]2[C@@H](O)[C@H](n3cnc4c(N(C)C)ncnc43)O[C@@H]2CO)cc1` [Puromycin dihydrochloride], under “Zaire ebolavirus, Vero”, the negative logarithm of the IC50 (pIC50) was 5.18 and the Emax amounted to 83.5%.

Turning to `CCCOc1ccc2nc(NC(=O)OC)[nH]c2c1` [Oxibendazole], the Emax (Zaire ebolavirus, Vero) came out at 47.2%.

In the case of `C=C(NC(=O)C(=C)NC(=O)c1csc(C2=N[C@@H]3c4csc(n4)[C@H]4NC(=O)c5csc(n5)[C@H]([C@](C)(O)[C@@H](C)O)NC(=O)[C@H]5CSC(=N5)/C(=C/C)NC(=O)[C@H]([C@@H](C)O)NC(=O)c5csc(n5)[C@]3(CC2)NC(=O)[C@H](C)NC(=O)C(=C)NC(=O)[C@H](C)NC(=O)[C@H]([C@@H](C)CC)N[C@@H]2C=Cc3c([C@H](C)O)cc(nc3[C@H]2O)C(=O)O[C@@H]4C)n1)C(N)=O` [Thiostrepton], the Emax (Zaire ebolavirus, Vero) amounted to 45.4%.

For `CO/C1=C\C(C)=C\[C@@H](C)[C@@H](O)[C@@H](C)C/C(C)=C/C=C/[C@H](OC)[C@@H]([C@@H](C)[C@@H](O)[C@H](C)[C@@]2(O)C[C@@H](O)[C@H](C)[C@@H](C(C)C)O2)OC1=O` [Bafilomycin A1], the “Max Effect” value is reported as 0.880. Further, the negative-log IC50 (pIC50) (read-out: IC50) was 7.72.

On to `CN(C)CCOc1ccc(/C(=C(/CCCl)c2ccccc2)c2ccccc2)cc1` [Toremifene], for which the pIC50 was 5.57 and the “Max Effect” value is listed as 0.461.
